Reference: paper PMC4200852, “Metabolism of Cryptic Peptides Derived from Neuropeptide FF Precursors: The Involvement of Insulin-Degrading Enzyme” (International Journal of Molecular Sciences, 2014)
Entries after “also recorded” stand apart in the source; their conditions may differ. Blank lines part the entries; values can stand above or below the molecule they belong to. Ends that are not written are not given here.

Tests used:
[1] = system: IDE, His-Tag, rat, recombinant; assay: Proteolysis by insulin-degrading enzyme (IDE) in vitro, ESI-MS; format: in vitro ADME; settings: 37 °C; for stability without IDE: no IDE
Excerpt: Other peaks assigned to the same fragments with the addition of Na^+ and K^+ are not labelled for simplicity.
IDE, His-Tag, rat, recombinant, from Spodoptera frugiperda, was purchased from Calbiochem (Milan, Italy), and its activity was verified by carrying out enzymatic digestion of insulin solutions according to the experimental procedure previously reported. Methanol (MeOH), formic acid (FA), Tris–HCl buffer, phosphate buffered saline (PBS) buffer and all chemicals used were purchased from Sigma–Aldrich. ZIPTIP C18 was purchased from Millipore (Milan, Italy). IDE enzymatic assays were carried out by incubating the enzyme solution (0.4 μM) at 37 °C with the peptide solution at the indicated concentration. After purification with ZIPTIP C18, 3 μL of the resulting solution were mixed with 50 μL of water and 50 μL of MeOH and injected into the mass spectrometer at 5 μL/min. ESI-MS experiments were performed by using a Finnigan LCQ DECA XP PLUS ion trap spectrometer operating in the positive ion mode and equipped with an orthogonal ESI source (Thermo Electron Corporation, Madison, WI, USA). Sample solutions were injected into the ion source using nitrogen as the drying gas. The mass spectrometer operated with a capillary voltage of 46 V and capillary a temperature of 250 °C, while the spray voltage was 4.3 kV. MS/MS data were interpreted by using the “Molecular Weight Calculator” software by Matthew Monroe freely available on the web.

[2] = NPNA metabolism by enzyme fractions separated from rat brain cortex homogenate, ESI-MS; format: in vitro ADME, male Wistar rats; settings: for peptide fragment (sequence) formed: 120 min
Protocol: Brain cortices were rapidly removed from the male Wistar rats (150–200 g) and frozen immediately on dry ice. Tissues were kept at −80 °C until assayed. Brain was homogenized in an ice-cold 20 mM Tris–HCl buffer, pH 7.5, and diluted 1:6. The obtained homogenate was centrifuged twice at 14,000× g for 10 min at 4 °C.
Enzymes present in the rat brain homogenate were separated on the ion-exchange column Econo-Pac High Q (resin volume: 5 mL; Bio-Rad, Berkeley, CA, USA). Gradient separation was performed by the HPLC system Prominence LC-20 AD with a Photodiode Array Detector SPD-M20A (Shimadzu, Tokyo, Japan). The sample volume loaded on the column was 1 mL. The mobile phase consisted of 20 mM Tris–HCl buffer, pH 7.5, and a gradient of NaCl from 0 to 500 mM in 60 min was used. The total flow rate was 1 mL/min. One-point-five-milliliter fractions were collected during the separation and stored in −80 °C prior to further experiments.
Enzyme assays were performed in 0.5-mL Eppendorf tubes. Each homogenized brain fraction was diluted 1:5 with 20 mM Tris–HCl buffer, pH 7.5, and the reaction was initiated by the addition of 5 μg of NPNA and continued by mixing at 37 °C for 120 min (or for 300 min for preparing time course metabolic process). Five-microliter aliquots were taken from the incubation mixture, acidified by 30% MeOH with 0.1% FA and analyzed by ESI-MS (Bruker Esquire 3000) equipped with an autosampler (Famos, Thermo Scientific, earlier LC-Packings, Bremen, Germany). MS/MS analysis was performed to confirm the sequence of the released fragments. Quantitation of the enzyme activity was performed by integration of the peak area of formed products on the mass chromatogram. The samples were incubated with and without amastatin, an aminopeptidase inhibitor.

IDE [3] = biological target: T1, IDE (Rattus norvegicus, UniProt P35559); assay: Surface Plasmon Resonance (SPR) OneStep binding to immobilized IDE; settings: comparison among the peptides tested
T1 construct: His-Tag; purchased Calbiochem (Milan, Italy); host or cells: Spodoptera frugiperda
T1 sequence (P35559 1-1019): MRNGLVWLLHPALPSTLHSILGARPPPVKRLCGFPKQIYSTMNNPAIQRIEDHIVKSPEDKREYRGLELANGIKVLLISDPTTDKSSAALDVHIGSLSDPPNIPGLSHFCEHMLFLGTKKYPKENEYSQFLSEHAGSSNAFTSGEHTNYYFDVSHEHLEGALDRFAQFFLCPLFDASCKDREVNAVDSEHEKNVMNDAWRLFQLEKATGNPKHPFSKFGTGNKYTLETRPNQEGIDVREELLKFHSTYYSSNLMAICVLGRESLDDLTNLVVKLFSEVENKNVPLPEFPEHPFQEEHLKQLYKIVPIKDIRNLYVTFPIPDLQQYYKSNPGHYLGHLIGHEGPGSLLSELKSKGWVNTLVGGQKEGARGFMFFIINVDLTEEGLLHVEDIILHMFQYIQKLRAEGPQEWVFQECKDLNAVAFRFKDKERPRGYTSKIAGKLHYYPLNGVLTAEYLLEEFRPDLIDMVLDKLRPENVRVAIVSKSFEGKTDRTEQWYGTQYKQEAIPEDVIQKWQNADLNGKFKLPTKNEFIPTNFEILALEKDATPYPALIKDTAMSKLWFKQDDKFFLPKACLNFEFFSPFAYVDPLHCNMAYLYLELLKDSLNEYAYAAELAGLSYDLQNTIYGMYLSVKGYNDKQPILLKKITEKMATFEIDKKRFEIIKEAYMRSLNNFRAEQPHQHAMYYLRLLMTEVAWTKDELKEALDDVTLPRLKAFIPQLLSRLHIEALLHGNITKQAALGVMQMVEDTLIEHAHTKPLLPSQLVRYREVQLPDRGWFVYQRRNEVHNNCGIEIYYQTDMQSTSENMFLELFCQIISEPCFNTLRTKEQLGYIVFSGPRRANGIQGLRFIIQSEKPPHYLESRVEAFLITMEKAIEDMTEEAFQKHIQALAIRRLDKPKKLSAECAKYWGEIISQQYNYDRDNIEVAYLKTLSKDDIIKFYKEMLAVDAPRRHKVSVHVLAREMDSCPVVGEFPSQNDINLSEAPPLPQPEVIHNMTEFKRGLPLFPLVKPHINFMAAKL

[4] = NPPW 1–25 degradation in rat brain homogenate, with and without amastatin, ESI-MS; format: in vitro ADME; settings: NPPW 1–25, rat brain homogenate
Protocol: We then tested the degradation of NPPW 1–25 peptide after incubation with rat brain homogenate, with and without the addition of amastatin. The latter was added to exclude the activity of aminopeptidases that are abundant in CNS. Such activity is responsible, among others, for the inactivation of opioid peptides, by truncation of the N-terminal Tyr, thus preventing binding to opioid receptors. […] In Table 2, the assignment of the peptide fragments detected is reported, while in Figure 4, a quantitative detection of their amounts at different incubation times is also shown. […] A further proof of this thesis could be obtained by applying selective IDE inhibitors that could become more easily available in the near future.
Brain cortices were rapidly removed from the male Wistar rats (150–200 g) and frozen immediately on dry ice. Tissues were kept at −80 °C until assayed. Brain was homogenized in an ice-cold 20 mM Tris–HCl buffer, pH 7.5, and diluted 1:6. […]
Enzyme assays were performed in 0.5-mL Eppendorf tubes. […] Five-microliter aliquots were taken from the incubation mixture, acidified by 30% MeOH with 0.1% FA and analyzed by ESI-MS (Bruker Esquire 3000) equipped with an autosampler (Famos, Thermo Scientific, earlier LC-Packings, Bremen, Germany). […] Quantitation of the enzyme activity was performed by integration of the peak area of formed products on the mass chromatogram. […]

IDE [5] = settings: statement without data or reference; cited from earlier work
[6] = biological target: T2, Insulin-degrading enzyme (IDE), His-Tag, rat, recombinant (rat, UniProt P35559 1-1019); assay: SPR; SensiQ Pioneer, OneStep approach; IDE immobilised by amine coupling on a COOH5 chip; peptides in solution (initial concentrations NPSA 74 uM, NPNA 74 uM, NPPW 150 uM); 0.01 M HEPES, 0.15 M NaCl, pH 7.4; fitted with Qdat, one binding site model for NPNA, two binding site model for NPSA and NPPW; settings: both partners purified
T2 construct: Insulin-degrading enzyme, rat, recombinant with His-Tag; Bought protein; immobilised by amine coupling for SPR; source: bought: Calbiochem (recombinant, from Spodoptera frugiperda)
T2 sequence (looked up): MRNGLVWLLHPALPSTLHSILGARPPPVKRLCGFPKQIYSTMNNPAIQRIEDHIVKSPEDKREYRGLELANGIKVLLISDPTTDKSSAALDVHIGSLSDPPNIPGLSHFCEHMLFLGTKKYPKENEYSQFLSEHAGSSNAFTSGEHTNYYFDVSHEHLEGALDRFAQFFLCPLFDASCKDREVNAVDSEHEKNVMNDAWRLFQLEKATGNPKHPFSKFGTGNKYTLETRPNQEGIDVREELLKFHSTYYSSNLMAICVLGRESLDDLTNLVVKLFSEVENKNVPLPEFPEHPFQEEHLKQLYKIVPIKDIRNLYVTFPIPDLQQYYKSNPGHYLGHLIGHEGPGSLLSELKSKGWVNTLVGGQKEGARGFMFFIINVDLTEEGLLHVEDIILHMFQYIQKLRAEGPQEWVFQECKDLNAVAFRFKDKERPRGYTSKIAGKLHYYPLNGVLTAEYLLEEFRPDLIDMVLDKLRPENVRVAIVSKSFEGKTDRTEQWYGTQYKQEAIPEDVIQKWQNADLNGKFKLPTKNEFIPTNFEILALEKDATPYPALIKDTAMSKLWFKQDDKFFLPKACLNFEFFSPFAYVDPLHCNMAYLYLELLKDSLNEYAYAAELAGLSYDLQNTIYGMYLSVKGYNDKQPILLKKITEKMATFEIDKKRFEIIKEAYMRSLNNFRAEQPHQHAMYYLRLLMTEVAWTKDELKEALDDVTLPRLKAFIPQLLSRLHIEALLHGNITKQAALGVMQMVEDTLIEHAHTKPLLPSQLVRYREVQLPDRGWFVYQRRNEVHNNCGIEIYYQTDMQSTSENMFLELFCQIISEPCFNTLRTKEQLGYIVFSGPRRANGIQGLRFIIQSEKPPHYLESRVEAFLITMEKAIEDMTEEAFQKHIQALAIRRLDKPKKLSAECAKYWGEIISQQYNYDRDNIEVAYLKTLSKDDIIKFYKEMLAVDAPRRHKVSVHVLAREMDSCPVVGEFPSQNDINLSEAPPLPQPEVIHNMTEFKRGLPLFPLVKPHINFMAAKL

Molecule: NAWGPWSKEQLSPQA [NPNA, NAWGPWSKEQLSPQA]
degradation by IDE ([1]; NPNA incubated with IDE, up to 24 h, ESI-MS): not cleaved by IDE; also recorded: IDE is not able to degrade NPNA; also recorded: not degraded by IDE; also recorded: does not produce any NPNA fragments at all incubation times investigated
time of highest amount of main product 1–11 ([2]; Fraction 23, 37 °C, pH 7.5): 4 h
peptide fragment (sequence) formed ([2]; Fraction 23 from Econo-Pac High Q, 5 μg NPNA, 20 mM Tris–HCl pH 7.5, 37 °C, ESI-MS): SPQA
main product, time course ([2]; Fraction 26, 37 °C, pH 7.5): SKEQL
peptide fragment (sequence) formed ([2]; Fraction 26 from Econo-Pac High Q, 5 μg NPNA, 20 mM Tris–HCl pH 7.5, 37 °C, ESI-MS): NAW and GPW and SKEQL and SPQA
cleavage position by brain cortex proteases ([2]; rat brain cortex fractions, 20 mM Tris–HCl pH 7.5, 37 °C, ESI-MS): mainly at the carboxyl side of the tryptophan and leucine; also recorded: mainly at the carboxyl side of tryptophan and leucine
time of highest product intensity ([2]; time course, rat brain cortex fractions, 5 μg NPNA, 20 mM Tris–HCl pH 7.5, 37 °C, ESI-MS): 4 h

main cleavage site by IDE ([1]; 50 μM NPSA, 8 nM IDE, PBS, 2 h, ESI-MS): between Trp6 and Ser7
fragments produced by IDE ([1]; 50 μM NPSA, 8 nM IDE, PBS, 2 h, ESI-MS, confirmed by MS/MS): SAWGSW; also recorded: SKEQLNPQA
main cleavage site by IDE ([1]; 50 μM NPSA, 8 nM IDE, PBS, 2 h, ESI-MS, listed as NPSA 1–15): Trp6–Ser7
stability without IDE ([1]; 50 μM NPSA, PBS, 2 h, ESI-MS): only the full-length peptide is detected
time to complete degradation by IDE ([1]; (IDE) = 1/6000 (NPSA), disappearance of NPSA molecular peak, 50 μM NPSA, PBS, ESI-MS): two
Molecule: SAWGSWSKEQLNPQA [NPSA, SAWGSWSKEQLNPQA]

Molecule: PQRFGRNAWGPWSKEQLSPQAREFW [NPPW 1–25]
relative KD for both binding sites (IDE [3]): lowest KD values for both binding sites
cleavage sites by IDE ([1]; 50 μM NPPW 1–25, 8 nM IDE, PBS, 8 h, ESI-MS): Gly5–Arg6, Ala8–Trp9, Gly10–Pro11 and Gln20–Ala21
fragments produced by IDE ([1]; 50 μM NPPW 1–25, 8 nM IDE, PBS, 8 h, ESI-MS, MS/MS): WGPWSKEQLSPQ; also recorded: PQRFGRNAWGPWSKEQLSPQ at high abundance
major cleavage site by IDE ([1]; 50 μM NPPW 1–25, 8 nM IDE, PBS, ESI-MS): Gln20–Ala21
stability without IDE ([1]; 50 μM NPPW 1–25, PBS, 8 h, ESI-MS): only the full-length peptide is detected
fragment generated only at longer incubation times with IDE ([1]; NPPW 1–25, more than 2 h, data not shown): PWSKEQLSPQAREFW
most abundant fragment produced by IDE ([1]; NPPW 1–25 with IDE, ESI-MS): PQRFGRNAWGPWSKEQLSPQ
major cleavage site [4]: Gln20–Ala21
most abundant peptide fragment [4]: NPPW 1–20

Molecule: CC(C)C[C@@H](N)[C@H](O)C(=O)N[C@H](C(=O)N[C@H](C(=O)N[C@@H](CC(=O)O)C(=O)O)C(C)C)C(C)C [amastatin, reference compound]
inhibition of IDE (IDE [5]): not inhibited by amastatin

Kd [6]: 3.98 mM
B1: NPNA (NAWGPWSKEQLSPQA {1-15}) (peptide)
peptide: NAWGPWSKEQLSPQA
notes: NPNA, residues 85-99 of rat pro-NPFFA (neuropeptide FF precursor); also called NPNA 1-15; source: synthetic peptide (Fmoc solid phase synthesis, purified by HPLC)
